The values below come from patent US20260223850A1, “SUBSTITUTED PYRROLIDONE COMPOUND, PREPARATION METHOD THEREFOR, COMPOSITION AND APPLICATION THEREOF” (QINGDAO KINGAGROOT CHEMICAL COMPOUND CO., LTD., priority 2023, published 2026).

Holding throughout (format): in vivo
The test system of data set [1] is Echinochloa crusgalli. Briefly: Seedling stage sealing experiment for water-seeding. Particulars: 120 g a.i./ha, 15 days, fresh weight control rate.
In data set [2] the test system is Echinochloa phyllopogon. The data set is described as above. Particulars: 120 g a.i./ha, 15 days, fresh weight control rate. The method, boiled down:
(§1)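 Water-seeding seedling stage test: broadcast seeds, cover with soil, keep bowls moist in a water box; spray compound (acetone, diluted in water) at 120, 60, 30, 15 g a.i./ha; culture 15 d in greenhouse; grade 0–9 by fresh-weight growth control; mean of 3.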

Data set [3] deals with Leptochloa chinensis. The description is as above. Particulars: 120 g a.i./ha, 15 days, fresh weight control rate. An excerpt:
(1) Seedling Stage Sealing Experiment for Water-Seeding:
The activity level criteria for plant damage (i.e., growth control rate) are as follows: • Level 9: completely dead; • Level 8: growth control rate greater than or equal to 90% and less than 100%; • Level 7: growth control rate greater than or equal to 80% and less than 90%; • Level 6: growth control rate greater than or equal to 70% and less than 80%; • Level 5: growth control rate greater than or equal to 50% and less than 70%; • Level 4: growth control rate greater than or equal to 30% and less than 50%; • Level 3: growth control rate greater than or equal to 20% and less than 30%; • Level 2: growth control rate greater than or equal to 10% and less than 20%; • Level 1: growth control rate less than 10%; • Level 0: no effect.
The above growth control rates are fresh weight control rates.
Echinochloa phyllopogon, Digitaria sanguinalis, Huaidao (rice cultivar), etc. were broadcasted on the surface of nutrition bowls filled with soil and fully covered by soil. The foregoing well-prepared nutrition bowls were then placed in a cultivation box with water filled to a suitable height to keep the soil in the nutrition bowls moist. A test compound of the present invention was individually dissolved with acetone, then diluted into solution of a certain concentration using a certain amount of water, and sprayed using a spray tower. The plants were placed on a greenhouse seedbed and cultured for 15 days, and the experimental results were then collected. The compound was applied at 120, 60, 30 and 15 g a.i./ha in triplicate, and the results were averaged.

Data set [4] has as its system Huaidao (rice cultivar). Briefly: Seedling stage sealing experiment for water-seeding (crop safety). The following applies: 120 g a.i./ha, 15 days, fresh weight control rate; for Huaidao (rice cultivar) plant damage level (growth control rate): spray, seedling stage sealing for water-seeding. The method, boiled down:
as §1

The mark [5] stands for this setting: spray, seedling stage sealing for water-seeding.

Regarding `CC(C)c1cccc([C@H]2CN(C)C(=O)[C@@H]2C(=O)Nc2cnn(C)c2Cl)c1` [20′], the “Echinochloa crusgalli activity level (growth control rate)” value (“Echinochloa crusgalli activity level” for short) in data set [1] (seedling stage sealing) is 9. Besides, the “Echinochloa phyllopogon activity level (growth control rate)” value (from here on “Echinochloa phyllopogon activity level”) in data set [2] (seedling stage sealing) is 8 (Level 8: growth control rate greater than or equal to 90% and less than 100%). For the same molecule, the “Leptochloa chinensis activity level (growth control rate)” value (from here on “Leptochloa chinensis activity level”) in data set [3] is given as 9.

With `COc1cccc([C@H]2CN(C)C(=O)[C@@H]2C(=O)Nc2cnn(C)c2Cl)c1` [28′], in data set [1] (seedling stage sealing), the “Echinochloa crusgalli activity level” value was 8 (Level 8: growth control rate greater than or equal to 90% and less than 100%). Moreover, in data set [2] (seedling stage sealing), the “Echinochloa phyllopogon activity level” value was 6 (Level 6: growth control rate greater than or equal to 70% and less than 80%). For the same molecule, the “Leptochloa chinensis activity level” value in data set [3] came out at 9.

In the case of `CN1C[C@H](c2cccc(OC(F)(F)F)c2)[C@@H](C(=O)Nc2cnn(C)c2Cl)C1=O` [33′], the “Echinochloa crusgalli activity level” value in data set [1] (seedling stage sealing) is on record as 9. Moreover, the “Echinochloa phyllopogon activity level” value in data set [2] (seedling stage sealing) is 8 (Level 8: growth control rate greater than or equal to 90% and less than 100%). Moreover, the “Leptochloa chinensis activity level” value in data set [3] amounted to 9.

Take `CN1C[C@H](c2cccc(Oc3ccccc3)c2)[C@@H](C(=O)Nc2cnn(C)c2Cl)C1=O` [50′]: in data set [3], the “Leptochloa chinensis activity level” value is 6 (Level 6: growth control rate greater than or equal to 70% and less than 80%).

On to `COc1cc([C@H]2CN(C)C(=O)[C@@H]2C(=O)Nc2cnn(C)c2Cl)cc(C(F)(F)F)c1` [75′], for which the “Echinochloa crusgalli activity level” value in data set [1] (seedling stage sealing) is 9. Further, the “Echinochloa phyllopogon activity level” value in data set [2] (seedling stage sealing) was 6 (Level 6: growth control rate greater than or equal to 70% and less than 80%). Moreover, the “Leptochloa chinensis activity level” value in data set [3] was determined as 9.

Regarding `CN1C[C@H](c2cccc(C(F)(F)F)c2)[C@@H](C(=O)Nc2cnn(CCF)c2Cl)C1=O` [98′], the “Echinochloa crusgalli activity level” value in data set [1] (seedling stage sealing) is 9. Besides, in data set [2] (seedling stage sealing), the “Echinochloa phyllopogon activity level” value is recorded as 9. Besides, in data set [3], the “Leptochloa chinensis activity level” value stood at 9.

As for `CN1C[C@H](c2cccc(C(F)(F)F)c2)[C@@H](C(=O)Nc2cnn(C)c2Br)C1=O` [120′], the “Echinochloa crusgalli activity level” value in data set [1] (seedling stage sealing) is listed as 9. Besides, the “Echinochloa phyllopogon activity level” value in data set [2] (seedling stage sealing) was 8 (Level 8: growth control rate greater than or equal to 90% and less than 100%). The “Leptochloa chinensis activity level” value in data set [3] is 9.

In the case of `CN1C[C@H](c2cccc(I)c2)[C@@H](C(=O)Nc2cnn(C)c2Cl)C1=O` [125′], in data set [1] (seedling stage sealing), the “Echinochloa crusgalli activity level” value came to 9. Besides, in data set [2] (seedling stage sealing), the “Echinochloa phyllopogon activity level” value is on record as 9. Besides, the “Leptochloa chinensis activity level” value in data set [3] turned out to be 9.

Consider `CN1C[C@H](c2cccc(Br)c2)[C@@H](C(=O)Nc2cnn(C)c2Cl)C1=O` [126′], for which the “Echinochloa crusgalli activity level” value in data set [1] (seedling stage sealing) was determined as 9. For the same molecule, the “Echinochloa phyllopogon activity level” value in data set [2] (seedling stage sealing) is on record as 9. Also, the “Leptochloa chinensis activity level” value in data set [3] turned out to be 9.

In the case of `Cc1cccc([C@H]2CN(C)C(=O)[C@@H]2C(=O)Nc2cnn(C3CC3)c2Cl)c1` [128′], in data set [1] (seedling stage sealing), the “Echinochloa crusgalli activity level” value was found to be 9. Moreover, the “Echinochloa phyllopogon activity level” value in data set [2] (seedling stage sealing) is 8 (Level 8: growth control rate greater than or equal to 90% and less than 100%). For the same molecule, the “Leptochloa chinensis activity level” value in data set [3] was determined as 9.

Take `Cc1cccc([C@H]2CN(C)C(=O)[C@@H]2C(=O)Nc2cnn(CC(F)(F)F)c2Cl)c1` [129′]: the “Echinochloa crusgalli activity level” value in data set [1] (seedling stage sealing) came to 9. Besides, in data set [2] (seedling stage sealing), the “Echinochloa phyllopogon activity level” value is 8 (Level 8: growth control rate greater than or equal to 90% and less than 100%). In data set [3], the “Leptochloa chinensis activity level” value worked out at 9.

For the molecule `Cc1cccc([C@H]2CN(C)C(=O)[C@@H]2C(=O)Nc2cnn(C(C)C)c2Cl)c1` [130′], the “Echinochloa crusgalli activity level” value in data set [1] (seedling stage sealing) is reported as 9. Also, the “Echinochloa phyllopogon activity level” value in data set [2] (seedling stage sealing) is given as 9. Besides, the “Leptochloa chinensis activity level” value in data set [3] came to 9.

As to `CCc1c(NC(=O)[C@H]2C(=O)N(C)C[C@@H]2c2cccc(C)c2)cnn1C` [135′], the “Echinochloa crusgalli activity level” value in data set [1] (seedling stage sealing) came out at 9. Also, in data set [2] (seedling stage sealing), the “Echinochloa phyllopogon activity level” value is 7 (Level 7: growth control rate greater than or equal to 80% and less than 90%). The “Leptochloa chinensis activity level” value in data set [3] is recorded as 9.

Take `Cc1cccc([C@H]2CN(C)C(=O)[C@@H]2C(=O)Nc2c(O)nn(C)c2F)c1` [147′]: in data set [1] (seedling stage sealing), the “Echinochloa crusgalli activity level” value was found to be 9. The “Echinochloa phyllopogon activity level” value in data set [2] (seedling stage sealing) is 8 (Level 8: growth control rate greater than or equal to 90% and less than 100%). Besides, the “Leptochloa chinensis activity level” value in data set [3] came out at 9.

Turning to `C=Cc1cccc([C@H]2CN(C)C(=O)[C@@H]2C(=O)Nc2cnn(C)c2Cl)c1` [149′], the “Echinochloa crusgalli activity level” value in data set [1] (seedling stage sealing) was 5 (Level 5: growth control rate greater than or equal to 50% and less than 70%). Moreover, the “Leptochloa chinensis activity level” value in data set [3] was 5 (Level 5: growth control rate greater than or equal to 50% and less than 70%).

In the case of `CN1C[C@H](c2cccc(C3CCCC3)c2)[C@@H](C(=O)Nc2cnn(C)c2Cl)C1=O` [152′], the “Echinochloa crusgalli activity level” value in data set [1] (seedling stage sealing) stood at 9. Moreover, the “Echinochloa phyllopogon activity level” value in data set [2] (seedling stage sealing) is 8 (Level 8: growth control rate greater than or equal to 90% and less than 100%). Also, the “Leptochloa chinensis activity level” value in data set [3] turned out to be 9.

On to `CN1C[C@H](c2cccc(C(F)F)c2)[C@@H](C(=O)Nc2cnn(C)c2Cl)C1=O` [154′], for which the “Echinochloa crusgalli activity level” value in data set [1] (seedling stage sealing) is listed as 9. For the same molecule, the “Echinochloa phyllopogon activity level” value in data set [2] (seedling stage sealing) was 8 (Level 8: growth control rate greater than or equal to 90% and less than 100%). Besides, the “Leptochloa chinensis activity level” value in data set [3] came out at 9.

Take `CN1C[C@H](c2cccc(C(F)(F)F)c2)[C@@H](C(=O)Nc2cnn(C(C)(C)C)c2Cl)C1=O` [157′]: the “Echinochloa crusgalli activity level” value in data set [1] (seedling stage sealing) is 5 (Level 5: growth control rate greater than or equal to 50% and less than 70%). The “Leptochloa chinensis activity level” value in data set [3] was 7 (Level 7: growth control rate greater than or equal to 80% and less than 90%).

On to `CN1C[C@H](c2cccc(C(F)(F)F)c2)[C@@H](C(=O)Nc2cnn(CC3CC3)c2Cl)C1=O` [165′], for which, in data set [3], the “Leptochloa chinensis activity level” value is 6 (Level 6: growth control rate greater than or equal to 70% and less than 80%).

On to `COc1cc(OC)cc([C@H]2CN(C)C(=O)[C@@H]2C(=O)Nc2cnn(C)c2C2CC2)c1` [301′], for which, in data set [3], the “Leptochloa chinensis activity level” value was 6 (Level 6: growth control rate greater than or equal to 70% and less than 80%).

As for `COc1cc([C@H]2CN(C)C(=O)[C@@H]2C(=O)Nc2cnn(C)c2Cl)ccc1C(F)(F)F` [316′], in data set [1] (seedling stage sealing), the “Echinochloa crusgalli activity level” value was 6 (Level 6: growth control rate greater than or equal to 70% and less than 80%). The “Leptochloa chinensis activity level” value in data set [3] was 6 (Level 6: growth control rate greater than or equal to 70% and less than 80%).

Regarding `Cc1csc([C@H]2CN(C)C(=O)[C@@H]2C(=O)Nc2cnn(C)c2Cl)c1` [520′], the “Echinochloa crusgalli activity level” value in data set [1] (setting [5]) worked out at 9. Besides, the “Echinochloa phyllopogon activity level” value in data set [2] (setting [5]) was 7 (Level 7: growth control rate greater than or equal to 80% and less than 90%). In data set [4], the “Huaidao (rice cultivar) plant damage level (growth control rate)” value turned out to be 0.

`CN1CC(c2cccc(OCC3CC3)c2)C(C(=O)Nc2cnn(C)c2Cl)C1=O` (stereo not drawn) [Compound 39]: the “Echinochloa crusgalli activity level” value in data set [1] (seedling stage sealing) is 6 (Level 6: growth control rate greater than or equal to 70% and less than 80%). Further, in data set [3], the “Leptochloa chinensis activity level” value was 9.

On to `CN1CC(c2cccc(OC3CCCC3)c2)C(C(=O)Nc2cnn(C)c2Cl)C1=O` (stereo not drawn) [Compound 41], for which the “Echinochloa crusgalli activity level” value in data set [1] (seedling stage sealing) is 5 (Level 5: growth control rate greater than or equal to 50% and less than 70%). In data set [3], the “Leptochloa chinensis activity level” value was 6 (Level 6: growth control rate greater than or equal to 70% and less than 80%).

With `CN1CC(c2cccc(C(F)(F)F)c2)C(C(=O)Nc2c(Cl)nn(C)c2Cl)C1=O` (stereo not drawn) [Compound 94], the “Echinochloa crusgalli activity level” value in data set [1] (seedling stage sealing) was 5 (Level 5: growth control rate greater than or equal to 50% and less than 70%). Also, the “Echinochloa phyllopogon activity level” value in data set [2] (seedling stage sealing) is 5 (Level 5: growth control rate greater than or equal to 50% and less than 70%). The “Huaidao (rice cultivar) plant damage level” value in data set [4] (seedling stage sealing) turned out to be 0.

As for `Cn1ncc(NC(=O)C2C(=O)NCC2c2cccc(C(F)(F)F)c2)c1Cl` (stereo not drawn) [Compound 100], the “Echinochloa crusgalli activity level” value in data set [1] (seedling stage sealing) was 6 (Level 6: growth control rate greater than or equal to 70% and less than 80%). In data set [3], the “Leptochloa chinensis activity level” value is 6 (Level 6: growth control rate greater than or equal to 70% and less than 80%).

Regarding `Cc1cc(C2CN(C)C(=O)C2C(=O)Nc2cnn(C)c2C(F)(F)F)cc(C)c1C` (stereo not drawn) [Compound 517], in data set [1] (setting [5]), the “Echinochloa crusgalli activity level” value turned out to be 9. Moreover, the “Echinochloa phyllopogon activity level” value in data set [2] (setting [5]) is on record as 9. Moreover, the “Huaidao (rice cultivar) plant damage level (growth control rate)” value in data set [4] amounted to 0.
